According to patent publication US20250027041A1, “COMPOSITION FOR INDUCING TRANSDIFFERENTIATION AND STEM CELLS TREATED THEREWITH” (YJ CERAPEUTICS INC., priority 2021, published 2025):

Tests used:
[1] = test system: human UCB-MSCs; assay: Tuj1 immunochemical assay with CtBP inhibitors; type: cell-based
Procedure: To determine CtBP1-mediated ciNSC5 differentiation by YJ102 in human UCB-MSCs, a CTBP1 mechanism by treatment with NSC95397 or 4-methylthio-2-oxobutanoate (MTOB) was analyzed by immunochemical assay. Specifically, UCB-MSCs were dispensed at 2.1×10^4 cells/well in a 12-well plate containing an 18 mm cover glass (circular) (a DMSO control group was dispensed at 3.5×10^3 cells/well). […] The culture medium was removed, washed with PBS, and fixed with 4% paraformaldehyde at room temperature for 10 minutes. After washed three times with PBS, the cells were permeabilized with PBS-T containing 0.5% Triton X-100 for 10 minutes, washed with PBS-T three times for 10 minutes each, and then blocked with a blocking solution (PBS-T containing 5% BSA and 5% goat serum) for 1 hour. Thereafter, the cells were treated with anti-Tuj1 antibody (Cat. 801201, BioLegend) diluted 1/5000 in a blocking solution and incubated at 4° C. overnight. The next day, the cells were washed 10 times for 10 minutes each with PBS-T, and then treated with anti-mouse IgG-cy3 (Cat. 111-165-003, Jackson ImmunoResearch) diluted 1/2000 in a blocking solution, and incubated for 1 hour in dark conditions. Next, the cells were washed 10 times for 10 minutes each with PBS-T, mounted with a mounting solution containing DAPI, and then observed with a confocal microscope.

[2] = target: T1, CtBP1 (Homo sapiens, UniProt Q13363); assay: Immunoprecipitation, CtBP1 oligomerization in UCB-MSCs; type: cell-based; set-up: expressed in transfected cells; host or cells: human UCB-MSC; settings: MTOB 300 μM
Procedure: To determine the effect of YJ102 on the regulation of oligomerization of C-terminal Binding Proteins (CtBPs) in human UCB-MSCs, immunoprecipitation analysis was performed. Specifically, UCB-MSCs were dispensed at 4×10^5 cells/ml in a 60 mm culture dish, and the next day, FLAG-CtBP1, HA-CtBP1, FLAG-CtBP2, and HA-CtBP1 were transfected into cells using 4 μl jetPRIME. Thereafter, the cells were treated with YJ102 (stock 30 mM in DMSO) and MTOB (stock 300 mM in DMSO) at 20 μM and 300 μM, respectively (Table 1). After 48 hours of transfection, proteins were extracted in the same manner as in Example 1-1. Protein G agarose slurry was washed with PBS and blocked with 1 ml of 1% BSA, washed with PBS, and added with 1 μg of anti-HA antibody diluted with 1.5 ml of PBS and incubated at 4° C. for 2 hours. Thereafter, the cells were centrifuged at 3,000×g for 2 minutes to remove the supernatant, washed with an IP150 buffer two times, added with 1 μg of the protein extracted above, and incubated at 4° C. overnight. After incubation, the cells were centrifuged at 3,000×g for 2 minutes to remove the supernatant, washed with PBS three times, added with 50 μl of 1 mg/ml HA peptide diluted with PBS, and incubated at room temperature for 10 minutes. […]

[3] = test system: UCB-MSCs; assay: Tuj1 immunochemical assay, direct conversion of UCB-MSCs into ciNSC5; type: cell-based, human; settings: 30 μM, 5 days; for expression of Tuj1: UCB-MSC
Procedure: Immunochemical assay was performed to confirm whether UCB-MSCs were transdifferentiated into ciNSC5, Tuj1-positive neural progenitor cells, by the compounds of the present invention, YJ101, YJ102, and YJ103. Specifically, UCB-MSCs were dispensed at 2.1×10^4 cells/well in a 12-well plate containing an 18 mm cover glass (a DMSO control group was dispensed at 3.5×10^3 cells/well). […] The culture medium was removed, washed with PBS, and then fixed with 4% paraformaldehyde at room temperature for 10 minutes. After washed three times with PBS, the cells were permeabilized with PBS-T containing 0.5% Triton X-100 for 10 minutes, washed with PBS-T three times for 10 minutes each, and then blocked with a blocking solution (PBS-T containing 5% BSA and 5% goat serum) for 1 hour. Thereafter, the cells were treated with anti-Tuj1 antibody (Cat. 801201, BioLegend) diluted 1/5000 in a blocking solution and incubated at 4° C. overnight. The next day, the cells were washed 10 times for 10 minutes each with PBS-T, and then treated with anti-mouse IgG-FITC diluted 1/500 in a blocking solution, and incubated for 1 hour in dark conditions. Next, the cells were washed 10 times for 10 minutes each with PBS-T, mounted with a mounting solution containing DAPI, and then observed with a confocal microscope.

[4] = test system: AD-MSC; assay: Tuj1 immunochemical assay, AD-MSC; type: cell-based, human; settings: 10, 20 or 30 μM, 5 days
Procedure: (§1) To determine whether transdifferentiation into ciNSC5, neural progenitor cells, occurred similarly even in MSCs of different origins when human UCB-MSCs were treated with YJ101, YJ102, or YJ103 for 5 days, the expression of neuronal markers in differentiated ciNSC5 was confirmed by immunochemical assay using MSCs from human adipose-derived mesenchymal stem cells (AD-MSCs), human bone marrow-derived mesenchymal stem cells ([…]) and human umbilical cord blood-derived mesenchymal stem cells (UCB-MSCs; Promo Cells). Specifically, AD-MSC (StemPro™ Human Adipose-Derived Stem Cell, Gibco, Passage #6) was incubated in a MesenPRO RS™ medium, BM-MSC (ATCC, Passage #6) was incubated in a Mesenchymal Stem Cell Basal Medium for Adipose, Umbilical and Bone Marrow-derived MSC (Cat. PCS-500-030, ATCC) medium, and UCB-MSC (Promo Cell, Passage #6) was incubated in a CellCor™ CD MSC (Cat. YSP001, Xell Therapeutics) medium, and then dispensed at 2.1×10^4 cells/well in a 12-well plate with an 18 mm cover glass (circular) (DMSO control group was dispensed at 3.5×10^3 cells/well). […] The culture medium was removed, washed with PBS, and then fixed with 4% paraformaldehyde at room temperature for 10 minutes. After washed three times with PBS, the cells were permeabilized with PBS-T containing 0.5% Triton X-100 for 10 minutes, washed with PBS-T three times for 10 minutes each, and then blocked with a blocking solution (PBS-T containing 5% BSA and 5% goat serum) for 1 hour. Thereafter, the cells were treated with anti-Tuj1 antibody (Cat. 801201, BioLegend) diluted 1/5000 in a blocking solution and incubated at 4° C. overnight. The next day, the cells were washed 10 times for 10 minutes each with PBS-T, and then treated with anti-mouse IgG-cy3 diluted 1/2000 in a blocking solution, and incubated for 1 hour in dark conditions. Next, the cells were washed 10 times for 10 minutes each with PBS-T, mounted with a mounting solution containing DAPI, and then observed with a confocal microscope.

[5] = test system: BM-MSC; assay: Tuj1 immunochemical assay, BM-MSC; type: cell-based, human; settings: 10, 20 or 30 μM, 5 days
Procedure: as §1

[6] = test system: UCB-MSC (Promo Cell); assay: Tuj1 immunochemical assay, UCB-MSC (Promo Cell); type: cell-based, human; settings: 10, 20 or 30 μM, 5 days
Procedure: as §1

[7] = test system: UCB-MSCs; assay: CellTiter-Glo proliferation assay; type: cell-based, human; settings: 10, 20, or 40 μM; 3 or 5 days
Procedure: Thereafter, 100 μl of a CellTiter-Glo reagent prepared by mixing a CellTiter-Glo Buffer with a CellTiter-Glo substrate was added to each well of a 96-well plate, covered with a plate cover, and incubated at room temperature for 30 minutes.

[8] = target: T1, CtBP1; assay: DARTS assay, CtBP1; type: binding; set-up: expressed in transfected cells; host or cells: human UCB-MSC (Kang Stem Cell), lysate; settings: for overexpressed CtBP1 (flag-CtBP1) protection from degradation by pronase (DARTS): FLAG-CtBP1 transfected UCB-MSC lysate, YJ101 (20 or M), YJ102 (20 or 30 μM), YJ103 (20 or 40 μM); for binding to CtBP1: human UCB-MSC
Procedure: To identify proteins binding to compounds of the present invention, YJ101 (Chemical Formula 1), YJ102 (Chemical Formula 2), and YJ103 (Chemical Formula 3), in human umbilical cord blood-derived mesenchymal stem cells (UCB-MSCs), DART assay was performed. Specifically, UCB-MSCs (Kang Stem Cell, Passage #6) were dispensed into a 100 mm culture dish and incubated in a KSB-3 medium (Cat. K3901, Kang Stem Cell) containing 10% FBS (Cat. 16000044), and then collected and washed with PBS. Thereafter, the cells were added with an IP50 lysis buffer [50 mM Tris-HCl (pH 7.4), 150 mM NaCl, 2 mM MgCl2, and 0.1% NP40], sonicated, and centrifuged at 13,000×g for 10 minutes at 4° C. to obtain the supernatant. The supernatant was added with 1/10 volume of 10×TNC buffer [500 mM Tris-HCl (pH 8.0), 500 mM NaCl, and 100 mM CaCl2)], and protein concentration was measured using a Bradford method. Thereafter, 9 μl of a cell lysate and 1 μl of YJ101 (20 or M), YJ102 (20 or 30 μM), or YJ103 (20 or 40 μM) were mixed in a microcentrifuge tube and incubated at room temperature for 1 hour. A control group was treated with 1 μl of DMSO. After incubation, 1 μl (1 mg/ml) of Pronase (Cat. 10 165 921 001, Roche) diluted to 1 mg/ml using a 1×TNC buffer was added to the microcentrifuge tube and incubated at 37° C. for 15 minutes. After incubation, ⅕ volume of a 5×SDS-PAGE loading buffer was added, heated at 100° C. for 5 minutes, and then SDS-PAGE and Coomassie blue staining were performed. In addition, UCB-MSCs were dispensed at 4×10^5 cells/ml in a 60 mm culture dish, and after 24 hours, 4 μg of FLAG-CtBP1 or FLAG-CtBP2 DNA was transfected using 4 μl of jetPRIME. After 48 hours, the cells were collected, and proteins were extracted and quantified using the same method as above. DARTS assay was performed with the cell lysate of CtBP1 and Y102 labeled with FLAG, and Western blot assay was performed with a flag antibody (Cat. F3165, Sigma).

How did the “expression of Tuj1 in YJ102-treated ciNSC5” value ([1]; 300 μM MTOB with 30 μM YJ102, 5 days) turn out when `CSCCC(=O)C(=O)O` [MTOB, 4-methylthio-2-oxobutanoate, reference compound] was run?
The value was “reduced”.

And the “YJ102-induced oligomerization of CtBP1” value [2]?
Its value is “inhibited”.

With `O=C1C(SCCO)=C(SCCO)C(=O)c2ccccc21` [NSC95397] as the compound, how does the “expression of Tuj1 in YJ102-treated ciNSC5” value ([1]; 10 μM NSC95397 with 30 μM YJ102, 5 days) read?
The value was “reduced”.

What does the source list for `CCc1ccc(N(C(=O)COC(C)=O)c2nc3cc(Cl)ccc3o2)cc1` [YJ101]?
direct conversion from UCB-MSCs to ciNSC5 [3]: induced direct conversion; expression of Tuj1 [3]: increased; expression of Tuj1 [4]: increased; expression of Tuj1 [5]: increased; expression of Tuj1 [6]: increased; cell proliferation (CellTiter-Glo) [7]: reduced cell proliferation in a concentration-dependent manner; overexpressed CtBP1 (flag-CtBP1) protection from degradation by pronase (DARTS) [8]: protected; binding to CtBP1 [8]: bound to CtBP1

With `CCc1ccc(N(C(=O)CCC(=O)OC)c2nc3cc(Cl)ccc3o2)cc1` [YJ103] as the compound, how does the “direct conversion from UCB-MSCs to ciNSC5” value [3] read?
The value was “induced direct conversion”.

What about the “expression of Tuj1” value [3] of the same compound?
Its value is “increased”.

What about the “expression of Tuj1” value [4] of the same compound?
The value was “increased”.

What about the “expression of Tuj1” value [5] of the same compound?
The value was “increased”.

And the “expression of Tuj1” value [6]?
The value was “increased”.

And the “cell proliferation (CellTiter-Glo)” value [7]?
Its value is “reduced cell proliferation in a concentration-dependent manner”.

And the “overexpressed CtBP1 (flag-CtBP1) protection from degradation by pronase (DARTS)” value [8]?
Its value is “protected”.

And the “binding to CtBP1” value [8]?
The value was “bound to CtBP1”.
